In ChEMBL document CHEMBL5120848, “Tapping into the antitubercular potential of 2,5-dimethylpyrroles: A structure-activity relationship interrogation” (Eur J Med Chem, 2022):
≈ marks a conversion by molar mass, not a printed value. Calls of active or inactive are those of the source. The rule behind the calls is not given here.

Assays:
[1] = system: Mycobacterium tuberculosis; assay: Anti-tubercular activity against Mycobacterium tuberculosis H37Rv assessed as inhibition of mycobacterial growth incubated for 7 days by resazurin-dye based analysis; assay type: functional; details: 168 h, time 7 day
[2] = Selectivity index, ratio of IC50 for cytotoxicity against mouse J774.A1 cells to MIC90 for anti-tubercular activity against Mycobacterium tuberculosis H37Rv; assay type: toxicity, cell-based; details: read-out: Selectivity Index
[3] = system: Mycobacterium tuberculosis; assay: Anti-tubercular activity against Mycobacterium tuberculosis CF152 assessed as inhibition of mycobacterial growth incubated for 7 days by resazurin-dye based analysis; assay type: functional; details: CF152, 168 h, time 7 day
[4] = system: Mycobacterium tuberculosis; assay: Anti-tubercular activity against Mycobacterium tuberculosis CF76 assessed as inhibition of mycobacterial growth incubated for 7 days by resazurin-dye based analysis; assay type: functional; details: CF76, 168 h, time 7 day
[5] = Cytotoxicity against mouse J774.A1 cells assessed as reduction in cell viability incubated for 24 hrs by resazurin-dye based analysis; assay type: toxicity
[6] = system: Mycobacterium tuberculosis; assay: Anti-tubercular activity against Mycobacterium tuberculosis CF161 assessed as inhibition of mycobacterial growth incubated for 7 days by resazurin-dye based analysis; assay type: functional; details: CF161, 168 h, time 7 day
[7] = Selectivity index, ratio of IC50 for cytotoxicity against human MRC5 cells to MIC90 for anti-tubercular activity against Mycobacterium tuberculosis H37Rv; assay type: toxicity, cell-based; details: read-out: Selectivity Index
[8] = system: Mycobacterium tuberculosis; assay: Anti-tubercular activity against Mycobacterium tuberculosis CF61 assessed as inhibition of mycobacterial growth incubated for 7 days by resazurin-dye based analysis; assay type: functional; details: CF61, 168 h, time 7 day
[9] = Cytotoxicity against human MRC5 cells assessed as reduction in cell viability incubated for 24 hrs by resazurin-dye based analysis; assay type: toxicity
[10] = system: Mycobacterium tuberculosis; assay: Anti-tubercular activity against Mycobacterium tuberculosis CF16 assessed as inhibition of mycobacterial growth incubated for 7 days by resazurin-dye based analysis; assay type: functional; details: CF16, 168 h, time 7 day
[11] = system: Mycobacterium tuberculosis; assay: Bactericidal activity against Mycobacterium tuberculosis H37Rv assessed as log reduction of bacterial colonies at 1XMIC measured on day 12 by time-kill kinetics analysis (reference value: 7.54 log10CFU/ml); assay type: functional; details: time 12 day
[12] = system: Mycobacterium tuberculosis; assay: Bacteriostatic activity against Mycobacterium tuberculosis H37Rv at 1XMIC measured for 12 days by time-kill kinetics analysis; assay type: functional, organism-based; details: time 12.0 day
[13] = system: Mycobacterium tuberculosis; assay: Anti-tubercular activity against Mycobacterium tuberculosis infected in mouse J774.A1 cells assessed as inhibition of intracellular bacilli growth incubated for 72 hrs; assay type: functional, organism-based

Row | Compound | MIC90 [1] | selectivity ratio [2] | IC50 at 24 h [5] | selectivity ratio [7] | IC50 at 24 h [9] | other results
1 | Cc1cc(CNCc2ccccc2)c(C)n1-c1ccccn1 | > 25 µg/mL |  |  |  |  | 
2 | Cc1cc(CNCC2CCCCC2)c(C)n1-c1ccccn1 | 16.3 µg/mL (≈ 54.7 µM) |  |  |  |  | 
3 | Cc1cc(CNC2CCCCC2)c(C)n1-c1ccc(OCC(=O)N(C)C)cc1 | > 25 µg/mL |  |  |  |  | 
4 | Cc1cc(CNC2CCCCC2)c(C)n1-c1ccc(OCC(=O)O)cc1 | 16.4 µg/mL (≈ 45.9 µM) |  |  |  |  | 
5 | Cc1ccc(-n2c(C)cc(CNCc3ccccc3)c2C)cc1 | 5.58 µg/mL (≈ 18.3 µM) | 15.8 | 94 µg/mL (≈ 309 µM) | 2.3 | 13.7 µg/mL (≈ 45 µM) | MIC90 [3]: 6.35 µg/mL (≈ 20.9 µM); MIC90 [4]: 8.18 µg/mL (≈ 26.9 µM); MIC90 [6]: 6.12 µg/mL (≈ 20.1 µM); MIC90 [8]: 9.16 µg/mL (≈ 30.1 µM); MIC90 [10]: 7.51 µg/mL (≈ 24.7 µM); Activity [11]: 2.65 log10CFU/ml
6 | Cc1cc(CNCC2CCCCC2)c(C)n1Cc1ccc(F)cc1 | 0.73 µg/mL (≈ 2.22 µM) | 13.6 | 9.88 µg/mL (≈ 30.1 µM) | 28.8 | 21 µg/mL (≈ 63.9 µM) | Activity [12]: Active; MIC90 [3]: 7.53 µg/mL (≈ 22.9 µM); MIC90 [4]: 18.8 µg/mL (≈ 57.2 µM); MIC90 [6]: 7.31 µg/mL (≈ 22.3 µM); Activity [13]: Active; MIC90 [8]: 9.38 µg/mL (≈ 28.6 µM); MIC90 [10]: 7.69 µg/mL (≈ 23.4 µM)
7 | Cc1cc(CNCCCCCCCCNC(=N)N)c(C)n1-c1ccc(OCC(=O)N(C)C)cc1.Cl.Cl | 8.91 µg/mL | 1.43 | 12.8 µg/mL | 4.04 | 36 µg/mL | 
8 | Cc1cc(CNCC2CCCCC2)c(C)n1C1CCCC1 | 9.21 µg/mL (≈ 31.9 µM) |  |  |  |  | 
9 | Cc1cc(CNCC2CCCCC2)c(C)n1Cc1ccccn1 | 23 µg/mL (≈ 73.9 µM) |  |  |  |  | 
10 | Cc1cc(CNC2CCC(N)CC2)c(C)n1-c1ccc(Cl)cc1.Cl.Cl (centres undefined) | > 25 µg/mL |  |  |  |  | 
11 | Cc1cc(CNCc2ccccc2)c(C)n1C1CCCC1 | 13.4 µg/mL (≈ 47.6 µM) |  |  |  |  | 
12 | Cc1cc(CNCc2ccccc2)c(C)n1-c1nc2ccccc2s1 | 11.2 µg/mL (≈ 32.1 µM) |  |  |  |  | 
13 | Cc1cc(CNCCCCCCCCNC(=N)N)c(C)n1-c1ccc(OCC(=O)O)cc1.Cl.Cl | 13.2 µg/mL |  |  |  |  | 
14 | Cc1cc(CNCC2CCCCC2)c(C)n1-c1ccccc1 | 0.3 µg/mL (≈ 1.01 µM) |  |  |  |  | 
15 | Cc1cc(CNCc2ccccc2)c(C)n1CC1CCCCC1 | 6.58 µg/mL (≈ 21.2 µM) | 2.04 | 13.4 µg/mL (≈ 43.3 µM) | 2.78 | 18.3 µg/mL (≈ 58.8 µM) | 
16 | NNC(=O)c1ccncc1 [ISONIAZID] | 0.11 µg/mL (≈ 0.802 µM) |  |  |  |  | MIC90 [3]: > 25 µg/mL; MIC90 [4]: > 25 µg/mL; MIC90 [6]: > 25 µg/mL; Activity [13]: Active; MIC90 [8]: > 25 µg/mL; MIC90 [10]: > 25 µg/mL

Row | Compound | MIC90 [1] | selectivity ratio [2] | IC50 at 24 h [5] | selectivity ratio [7] | IC50 at 24 h [9] | other results
17 | Cc1cc(CNNC(=O)c2ccncc2)c(C)n1-c1ccc(Cl)cc1 |  |  | 78.5 µg/mL (≈ 221 µM) |  | 96.1 µg/mL (≈ 271 µM) | 
18 | Cc1cc(CNC2CCC(NC(=N)N)CC2)c(C)n1-c1ccc(Cl)cc1.Cl.Cl (centres undefined) | 10.4 µg/mL |  |  |  |  | 
19 | Cc1cc(CNCC2CCCCC2)c(C)n1Cc1ccc(Cl)cc1 | 1.39 µg/mL (≈ 4.03 µM) | 4.25 | 5.92 µg/mL (≈ 17.2 µM) | 7.71 | 10.8 µg/mL (≈ 31.2 µM) | 
20 | Cc1cc(CNCc2ccccc2)c(C)n1C(C)c1ccccc1 (centres undefined) | 7.94 µg/mL (≈ 24.9 µM) | 2.21 | 17.6 µg/mL (≈ 55.1 µM) | 4.2 | 33.3 µg/mL (≈ 105 µM) | 
21 | Cc1cc(CNCc2ccccc2)c(C)n1Cc1ccc(F)cc1 | 6.96 µg/mL (≈ 21.6 µM) | 2.26 | 15.7 µg/mL (≈ 48.7 µM) | 2.32 | 16.2 µg/mL (≈ 50.1 µM) | 
22 | Cc1cc(CNCC2CCCCC2)c(C)n1-c1nc2ccccc2s1 | 0.4 µg/mL (≈ 1.13 µM) | 21.2 | 8.47 µg/mL (≈ 24 µM) | 25.8 | 10.3 µg/mL (≈ 29.2 µM) | Activity [12]: Active; MIC90 [3]: 10.9 µg/mL (≈ 30.9 µM); MIC90 [4]: 19.6 µg/mL (≈ 55.5 µM); MIC90 [6]: 13.6 µg/mL (≈ 38.5 µM); Activity [13]: Active; MIC90 [8]: 23.5 µg/mL (≈ 66.5 µM); MIC90 [10]: 20.1 µg/mL (≈ 56.9 µM)
23 | Cc1cc(CNCC2CCCCC2)c(C)n1C(C)c1ccccc1 (centres undefined) | 4.48 µg/mL (≈ 13.8 µM) | 13.5 | 60.6 µg/mL (≈ 187 µM) | 5.23 | 23.4 µg/mL (≈ 72.2 µM) | MIC90 [3]: 4.32 µg/mL (≈ 13.3 µM); MIC90 [4]: 9.13 µg/mL (≈ 28.1 µM); MIC90 [6]: 9.94 µg/mL (≈ 30.6 µM); Activity [13]: Active; MIC90 [8]: 10.2 µg/mL (≈ 31.3 µM); MIC90 [10]: 8.7 µg/mL (≈ 26.8 µM); Activity [11]: 3.94 log10CFU/ml
24 | NCC[C@H](O)C(=O)N[C@@H]1C[C@H](N)[C@@H](O[C@H]2O[C@H](CN)[C@@H](O)[C@H](O)[C@H]2O)[C@H](O)[C@H]1O[C@H]1O[C@H](CO)[C@@H](O)[C@H](N)[C@H]1O [AMIKACIN] | 0.25 µg/mL (≈ 0.427 µM) |  |  |  |  | MIC90 [3]: 0.19 µg/mL (≈ 0.324 µM); MIC90 [4]: 0.25 µg/mL (≈ 0.427 µM); MIC90 [6]: 0.24 µg/mL (≈ 0.41 µM); MIC90 [8]: 0.91 µg/mL (≈ 1.55 µM); MIC90 [10]: 0.22 µg/mL (≈ 0.376 µM)
25 | Cc1cc(CNCc2ccccc2)c(C)n1Cc1ccc(Cl)cc1 | 10.6 µg/mL (≈ 31.1 µM) |  |  |  |  | 
26 | Cc1ccc(-n2c(C)cc(CNCC3CCCCC3)c2C)cc1 | 4.88 µg/mL (≈ 15.7 µM) | 5.13 | 25.1 µg/mL (≈ 80.7 µM) | 3.19 | 15.6 µg/mL (≈ 50.2 µM) | 
27 | Cc1cc(CNCCCCNC(=N)N)c(C)n1-c1ccc(Cl)cc1.Cl.Cl | 14.2 µg/mL |  |  |  |  | 
28 | Cc1cc(CNCC2CCCCC2)c(C)n1C1CCCCC1 | 1.74 µg/mL (≈ 5.75 µM) | 6.89 | 12 µg/mL (≈ 39.6 µM) | 15.3 | 26.7 µg/mL (≈ 88.3 µM) | 
29 | COc1c(N2C[C@@H]3CCCN[C@@H]3C2)c(F)cc2c(=O)c(C(=O)O)cn(C3CC3)c12 [MOXIFLOXACIN] | ≤ 0.07 µg/mL | 209 | 14.6 µg/mL (≈ 36.3 µM) | 1430 | > 100 µg/mL | MIC90 [3]: 0.57 µg/mL (≈ 1.42 µM); MIC90 [4]: 0.2 µg/mL (≈ 0.498 µM); MIC90 [6]: 0.17 µg/mL (≈ 0.423 µM); Activity [13]: Active; MIC90 [8]: 0.27 µg/mL (≈ 0.673 µM); MIC90 [10]: 0.14 µg/mL (≈ 0.349 µM)
30 | CCOc1ccc(-n2c(C)cc(CNC3CCCCC3)c2C)cc1 | 5.14 µg/mL (≈ 15.7 µM) | 1.78 | 9.17 µg/mL (≈ 28.1 µM) | 3.87 | 19.9 µg/mL (≈ 61 µM) | 
31 | CO[C@H]1/C=C/O[C@@]2(C)Oc3c(C)c(O)c4c(O)c(c(/C=N/N5CCN(C)CC5)c(O)c4c3C2=O)NC(=O)/C(C)=C\C=C\[C@H](C)[C@H](O)[C@@H](C)[C@@H](O)[C@@H](C)[C@H](OC(C)=O)[C@@H]1C [RIFAMPIN] | 0.05 µg/mL (≈ 0.0608 µM) |  |  |  |  | MIC90 [3]: > 25 µg/mL; MIC90 [4]: > 25 µg/mL; MIC90 [6]: > 25 µg/mL; MIC90 [8]: > 25 µg/mL; MIC90 [10]: 0.2 µg/mL (≈ 0.243 µM)
32 | Cc1cc(CNC2CCCCC2)c(C)n1-c1ccc(C(=O)O)cc1 | > 25 µg/mL |  |  |  |  | 
